Results from ChEMBL document CHEMBL6096636 (Bioorg Med Chem, 2024).
Activity calls are given as the source filed them. No cut-off for these calls is given here.

Tests used:
[1] = Metabolic stability in mouse liver microsomes assessed as clearance measured upto 45 mins in presence of NADPH by LC-MS/MS analysis; type: ADME, Microsome; conditions: read-out: CLH
[2] = Tmax in female Balb/c mouse at 5 mg/kg, ip measured after 24 hrs by LC-MS/MS analysis; type: ADME, organism-based; conditions: in vivo
[3] = Selectivity index, ratio of IC50 for HEK293T cells to IC50 for erythrocytic stage of Plasmodium falciparum 3D7; type: toxicity, cell-based; conditions: human, read-out: Ratio IC50
Histone deacetylase 1 = Histone deacetylase 1 (Homo sapiens, UniProt Q13547); test: Inhibition of recombinant human HDAC1 using Ac-peptide as substrate preincubated for 15 mins followed by substrate addition and measured after 60 mins
Histone deacetylase 1, sequence (Q13547 whole entry): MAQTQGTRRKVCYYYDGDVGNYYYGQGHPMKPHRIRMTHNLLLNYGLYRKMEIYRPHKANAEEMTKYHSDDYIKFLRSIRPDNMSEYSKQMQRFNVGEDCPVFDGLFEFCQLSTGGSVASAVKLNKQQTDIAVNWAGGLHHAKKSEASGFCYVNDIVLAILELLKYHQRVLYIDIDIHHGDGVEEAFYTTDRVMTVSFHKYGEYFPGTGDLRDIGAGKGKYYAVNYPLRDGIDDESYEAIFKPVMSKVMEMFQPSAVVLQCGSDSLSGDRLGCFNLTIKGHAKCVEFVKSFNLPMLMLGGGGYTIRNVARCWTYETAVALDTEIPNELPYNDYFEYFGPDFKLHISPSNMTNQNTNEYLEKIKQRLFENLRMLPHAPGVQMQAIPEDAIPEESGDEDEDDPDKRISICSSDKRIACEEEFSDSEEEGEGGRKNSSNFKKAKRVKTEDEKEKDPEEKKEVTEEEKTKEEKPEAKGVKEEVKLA

Plasmodium falciparum [4] = test: microbe, parasite or virus in culture; conditions: 72 h
Description: Antimalarial activity against quinine and chloroquine resistant Plasmodium falciparum clinical isolate C2A assessed as inhibition of growth incubated for 72 hrs by SYBR green I based assay

Plasmodium falciparum [5] = test: Inhibition of asynchronous ring stage Plasmodium falciparum 3D7 HDAC assessed as increase in histone H3 acetylation level at 20 times of IC50 concentration incubated for 2 hrs by Western blot analysis
[6] = Cytotoxicity against HEK293T cells assessed as inhibition of cell growth incubated for 72 hrs by CCK8 assay; type: toxicity, cell-based, HEK-293T; conditions: human
Histone deacetylase 3 = Histone deacetylase 3 (Homo sapiens, UniProt O15379); test: Inhibition of recombinant human HDAC3 using Ac-peptide as substrate preincubated for 15 mins followed by substrate addition and measured after 60 mins
Histone deacetylase 3, sequence (O15379 whole entry): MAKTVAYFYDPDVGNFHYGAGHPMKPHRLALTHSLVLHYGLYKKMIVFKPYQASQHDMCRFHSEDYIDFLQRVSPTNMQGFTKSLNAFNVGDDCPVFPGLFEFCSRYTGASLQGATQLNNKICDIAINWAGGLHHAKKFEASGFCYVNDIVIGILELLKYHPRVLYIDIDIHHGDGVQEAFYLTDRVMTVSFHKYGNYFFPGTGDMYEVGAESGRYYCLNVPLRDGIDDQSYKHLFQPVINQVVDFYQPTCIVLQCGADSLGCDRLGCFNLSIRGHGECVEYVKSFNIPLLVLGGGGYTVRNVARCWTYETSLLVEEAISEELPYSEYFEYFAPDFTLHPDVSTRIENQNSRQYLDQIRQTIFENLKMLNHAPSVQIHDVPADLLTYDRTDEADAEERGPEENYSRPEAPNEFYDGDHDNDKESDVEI

[7] = Half-life in female Balb/c mouse at 5 mg/kg, ip measured after 24 hrs by LC-MS/MS analysis; type: ADME, organism-based; conditions: in vivo
[8] = target: T1, NAD-dependent protein deacetylase sirtuin-2 (Homo sapiens, UniProt Q8IXJ6); test: Inhibition of recombinant human SIRT2 using Ac-peptide as substrate preincubated for 15 mins followed by substrate addition for 240 mins and measured after 120 mins of trypsin addition
T1 sequence (Q8IXJ6 whole entry): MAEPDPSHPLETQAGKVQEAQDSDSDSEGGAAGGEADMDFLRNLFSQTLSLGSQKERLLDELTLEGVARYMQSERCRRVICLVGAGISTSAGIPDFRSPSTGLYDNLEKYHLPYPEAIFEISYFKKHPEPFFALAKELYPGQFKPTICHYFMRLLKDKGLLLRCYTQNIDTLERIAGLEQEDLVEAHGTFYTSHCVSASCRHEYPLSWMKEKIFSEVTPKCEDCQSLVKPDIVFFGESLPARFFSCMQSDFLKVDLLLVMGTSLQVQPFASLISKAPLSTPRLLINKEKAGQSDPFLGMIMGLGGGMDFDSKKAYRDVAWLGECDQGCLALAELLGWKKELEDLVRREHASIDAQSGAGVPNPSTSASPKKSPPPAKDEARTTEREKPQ

[9] = Apparent clearance during terminal phase in female Balb/c mouse at 5 mg/kg, ip measured after 24 hrs by LC-MS/MS analysis; type: ADME, organism-based; conditions: in vivo, read-out: CLz/F (converted)
[10] = Cmax in female Balb/c mouse at 5 mg/kg, ip measured after 24 hrs by LC-MS/MS analysis; type: ADME, organism-based; conditions: in vivo
[11] = Selectivity index, ratio of IC50 for human HepG2 cells to IC50 for erythrocytic stage of Plasmodium falciparum 3D7; type: toxicity, cell-based; conditions: read-out: Ratio IC50
Plasmodium falciparum [12] = test: microbe, parasite or virus in culture; conditions: 3D7, 72 h
Description: Antimalarial activity against erythrocytic stage of Plasmodium falciparum 3D7 assessed as inhibition of growth incubated for 72 hrs by SYBR green I based assay

Histone deacetylase 2 = Histone deacetylase 2 (Homo sapiens, UniProt Q92769); test: Inhibition of recombinant human HDAC2 using Ac-peptide as substrate preincubated for 15 mins followed by substrate addition and measured after 60 mins
Histone deacetylase 2, sequence (Q92769 whole entry): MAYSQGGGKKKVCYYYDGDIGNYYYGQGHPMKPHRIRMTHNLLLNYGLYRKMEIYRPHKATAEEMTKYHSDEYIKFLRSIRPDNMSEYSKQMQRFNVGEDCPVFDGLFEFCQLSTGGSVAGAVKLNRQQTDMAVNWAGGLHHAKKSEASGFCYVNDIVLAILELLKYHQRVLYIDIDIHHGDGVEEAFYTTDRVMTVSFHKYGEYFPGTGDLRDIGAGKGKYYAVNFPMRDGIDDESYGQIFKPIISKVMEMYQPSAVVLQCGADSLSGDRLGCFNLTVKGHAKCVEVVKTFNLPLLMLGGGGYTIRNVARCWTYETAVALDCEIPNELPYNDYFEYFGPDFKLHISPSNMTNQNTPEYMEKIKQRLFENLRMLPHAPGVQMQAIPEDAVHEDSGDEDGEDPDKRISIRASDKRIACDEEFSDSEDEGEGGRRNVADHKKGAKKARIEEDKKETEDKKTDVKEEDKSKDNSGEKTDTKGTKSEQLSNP

[13] = target: T2, Protein deacetylase HDAC6 (Homo sapiens, UniProt Q9UBN7); test: Inhibition of recombinant human HDAC6 using Ac-peptide as substrate preincubated for 15 mins followed by substrate addition and measured after 60 mins
T2 sequence (Q9UBN7 whole entry): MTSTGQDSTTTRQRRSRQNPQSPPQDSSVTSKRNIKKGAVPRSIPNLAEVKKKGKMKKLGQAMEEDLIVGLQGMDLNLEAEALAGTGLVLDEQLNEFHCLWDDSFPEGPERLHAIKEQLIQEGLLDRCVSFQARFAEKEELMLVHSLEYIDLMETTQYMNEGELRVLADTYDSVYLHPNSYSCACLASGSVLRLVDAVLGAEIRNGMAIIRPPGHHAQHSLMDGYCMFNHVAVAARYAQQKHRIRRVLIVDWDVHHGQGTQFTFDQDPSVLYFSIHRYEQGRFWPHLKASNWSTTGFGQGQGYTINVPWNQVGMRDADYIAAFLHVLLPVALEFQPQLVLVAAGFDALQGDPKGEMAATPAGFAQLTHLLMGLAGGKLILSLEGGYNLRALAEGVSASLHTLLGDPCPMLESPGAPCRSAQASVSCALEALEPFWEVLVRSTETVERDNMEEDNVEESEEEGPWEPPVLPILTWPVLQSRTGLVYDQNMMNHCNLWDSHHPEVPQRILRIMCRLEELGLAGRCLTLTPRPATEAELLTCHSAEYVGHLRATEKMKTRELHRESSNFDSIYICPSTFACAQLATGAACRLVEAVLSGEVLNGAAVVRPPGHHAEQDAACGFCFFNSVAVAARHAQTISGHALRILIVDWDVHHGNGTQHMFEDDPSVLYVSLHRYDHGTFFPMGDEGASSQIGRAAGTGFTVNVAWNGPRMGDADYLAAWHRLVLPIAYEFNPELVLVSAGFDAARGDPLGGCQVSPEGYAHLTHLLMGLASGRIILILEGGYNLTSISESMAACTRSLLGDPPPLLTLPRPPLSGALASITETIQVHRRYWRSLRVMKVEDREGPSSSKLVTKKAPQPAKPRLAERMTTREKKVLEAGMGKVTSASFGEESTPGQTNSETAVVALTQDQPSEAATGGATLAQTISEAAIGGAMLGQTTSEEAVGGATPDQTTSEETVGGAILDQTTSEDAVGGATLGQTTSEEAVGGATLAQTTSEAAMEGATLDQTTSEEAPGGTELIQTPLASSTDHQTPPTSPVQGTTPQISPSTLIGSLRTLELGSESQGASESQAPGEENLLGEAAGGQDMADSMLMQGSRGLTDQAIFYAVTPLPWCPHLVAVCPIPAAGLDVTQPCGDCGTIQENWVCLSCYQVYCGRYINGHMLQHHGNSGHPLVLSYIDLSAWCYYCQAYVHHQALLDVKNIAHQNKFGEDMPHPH

Plasmodium falciparum [14] = test: Antimalarial activity against sulfadoxine-pyrimethamine and mefloquine resistant Plasmodium falciparum clinical isolate CP286 assessed as inhibition of growth incubated for 72 hrs by SYBR green I based assay; type: functional, organism-based
Plasmodium falciparum [15] = test: microbe, parasite or virus in culture; conditions: Dd2, 72 h
Description: Antimalarial activity against erythrocytic stage of chloroquine-resistant Plasmodium falciparum Dd2 assessed as inhibition of growth incubated for 72 hrs by SYBR green I based assay

[16] = Toxicity in female mouse model infected with erythrocytic stage of Plasmodium yoelli assessed as animal death at 30 mg/kg, ip pre-infected with parasite followed by twice daily compound administration from day 3 to 6; type: organism-based; conditions: in vivo, 96 h, time 4 day
[17] = Metabolic stability in mouse liver microsomes assessed as half-life measured upto 45 mins in presence of NADPH by LC-MS/MS analysis; type: ADME, Microsome

Cc1ccc2c(CN[C@H]3CC[C@@H](Nc4ncc(C(=O)NO)cn4)CC3)cn(C)c2c1.Cl
CLint scaled [1]: 140 mL/min/kg
Tmax [2]: 15 min
selectivity ratio [3]: 687
IC50 (Histone deacetylase 1): 4.9 nM
IC50 (Plasmodium falciparum [4]): 24.7 nM
inhibition (Plasmodium falciparum [5]): Active
IC50 at 72 h [6]: 7750 nM
IC50 (Histone deacetylase 3): 23 nM
half-life [7]: 114 min
IC50 [8]: > 10000 nM
CL/F [9]: 97.7 mL/min/kg
Cmax [10]: 803 ng/mL
selectivity ratio [11]: 469
IC50 (Plasmodium falciparum [12]): 11.3 nM
IC50 (Histone deacetylase 2): 11 nM
IC50 [13]: 60 nM
IC50 (Plasmodium falciparum [14]): 28.4 nM
IC50 (Plasmodium falciparum [15]): 19.4 nM
Activity [16]: Toxic
half-life [17]: 39 min
